Data set [1] has as its target Protein kinase C alpha type (Homo sapiens, UniProt P17252). Nature of the data set: Displacement of [20-3H]-PDBU ligand from recombinant protein kinase C (baculovirus).
The nature of data set [2]: Partition coefficient (logP). The format is physicochemical. As to conditions: octanol/water.

15 compounds from ChEMBL document CHEMBL1134299, “Conformationally constrained analogues of diacylglycerol. 18. The incorporation of a hydroxamate moiety into diacylglycerol-lactones reduces lipophilicity and helps discriminate between sn-1 and sn-2 binding modes to protein kinase C (PK-C). Implications for isozyme specificity” (J Med Chem, 2001) can be followed below.

Molecules are shown by their SMILES.

Usually Ki stands for the equilibrium dissociation constant of an inhibitor or competing ligand from its target. In general, logP refers to a log measure of how a compound divides between an organic and an aqueous phase. Take `CC(C)CC(C/C=C1\CC(CO)(COC(=O)CC(C(C)C)C(C)C)OC1=O)CC(C)C` (stereo not given): the Ki in data set [1] was determined as 4.46 nM. In data set [2], the logP was found to be 6.88. The corresponding values for `CC(C)CC(C/C=C1\CC(CO)(COC(=O)C(C)(C)C)OC1=O)CC(C)C` (stereo not given) are 4.51 nM and 5.03.

Regarding `CC(C)CC(C/C=C1/CC(CO)(COC(=O)CC(C(C)C)C(C)C)OC1=O)CC(C)C` (stereo not given), the inhibitory constant (Ki) in data set [1] is 6.87 nM. Also, in data set [2], the logP came to 6.88. The corresponding values for `CC(C)CC(C/C=C1/CC(CO)(COC(=O)C(C)(C)C)OC1=O)CC(C)C` (stereo not given) are 2.9 nM and 5.03.

As for `CC(C)CC(C/C=C1\CC(CO)(COC(=O)C(C)(C)C)NC1=O)CC(C)C` (stereo not given), in data set [1], the Ki turned out to be 4840 nM. In data set [2], this compound yielded a logP of 5.01. The corresponding values for `CC(C)CC(C/C=C1\CC(CO)(CNC(=O)C(C)(C)C)OC1=O)CC(C)C` (stereo not given) are 1260 nM and 3.95. As for `CC(C)C(C/C=C1/CC(CO)(COC(=O)C(C)(C)C)OC1=O)C(C)C` (stereo not given), the Ki in data set [1] amounted to 8.32 nM. With `CC(C)CC(C/C=C1/CC(CO)(COC(=O)C(C)(C)C)NC1=O)CC(C)C` (stereo not given), the Ki in data set [1] worked out at 4330 nM. This compound gave a logP in data set [2] of 5.01. The compound `CC(C)C(C/C=C1\CC(CO)(COC(=O)CC(C(C)C)C(C)C)OC1=O)C(C)C` (stereo not given) yielded a lipophilicity (logP) in data set [2] of 5.89.

In data set [2], `CC(C)C(C/C=C1/CC(CO)(COC(=O)CC(C(C)C)C(C)C)OC1=O)C(C)C` (stereo not given) showed a logP of 5.89. For `CC(C)C(C/C=C1\CC(CO)(COC(=O)C(C)(C)C)OC1=O)C(C)C` (stereo not given), in data set [1], the Ki was found to be 11.2 nM. As to `CC(C)CC(C/C=C1\CC(CO)(CN(O)C(=O)C(C)(C)C)OC1=O)CC(C)C` (stereo not given), the Ki in data set [1] was found to be 4.81 nM. For the same compound, the logP in data set [2] turned out to be 3.58. The corresponding values for `CC(C)CC(C/C=C1/CC(CO)(CNC(=O)C(C)(C)C)OC1=O)CC(C)C` (stereo not given) are 430 nM and 3.95. The corresponding values for `CC(C)CC(C/C=C1/CC(CO)(CN(O)C(=O)C(C)(C)C)OC1=O)CC(C)C` (stereo not given) are 5.42 nM and 3.58. Take `CC(C)CC(C/C=C1\CC(CO)(COC(=O)C(C)(C)C)N(O)C1=O)CC(C)C` (stereo not given): the Ki in data set [1] was 10400 nM.
